Patent US20240262815A1, “HETEROARYL DERIVATIVE, METHOD FOR PREPARING SAME, AND PHARMACEUTICAL COMPOSITION COMPRISING SAME AS ACTIVE INGREDIENT” (VORONOI INC., priority 2021, published 2024)

These molecules were tested on SK-BR-3 cancer cells (assay: Inhibitory activity against proliferation of SK-BR-3 cancer cells (CellTiter-Glo)). Settings: Homo sapiens, SK-BR-3, 120 h, ErbB2-overexpressing SK-BR-3 cells, 120 hours after treatment.
Format: cell-based
Description: To evaluate the inhibitory activity of a compound according to the present invention against the proliferation of ErbB2-overexpressing cancer cells, the following experiment were performed.
10% FBS-added McCOY'S 5A was used for SK-BR-3 cancer cells. 20% FBS-added RPMI-1640 was used for BT-474 cancer cells. Transduced Ba/F3 cells were cultured in a RPMI-1640 medium to which 1 μg/ml puromycin (Invitrogen) was added.
48 hours before compound treatment, each type of the SK-BR-3 and BT-474 cells were seeded at 5,000 cells/well in a white clear bottom 96 well plate (Corning). The compound was diluted in dimethyl sulfoxide (SK-BR-3: 3-fold dilution, a total of 12 concentrations, BT-474: […], a total of 12 concentrations) and injected at 1 μl to have the final concentration of 0.2 nM to 5 μM. As for measurement of live cells, 120 hours after treatment with the compound, a CellTiter-Glo luminescent cell-viability reagent (Promega) was used to store the cells at room temperature for 10 minutes, followed by measurement of luminescence using a reader (SynergyNeo, Biotek). Each test was repeated three times.
The result values were calculated as a cell growth rate (%) compared to the control group. A graph was plotted using the GraphPad Prism version 8.3.0 program, and GI50 values were calculated.
`C=CC(=O)Nc1cc(Nc2cc(N3OCC[C@@H]3c3ccc(F)c(OCc4cccc(F)c4)c3)ncn2)c(OC)cc1N1CCN(C)CC1` [Example 244, (R)-N-(5-((6-(3-(4-fluoro-3-((3-fluorobenzyl)oxy)-phenyl)isoxazol-idin-2-yl)pyrim-idin-4-yl)amino)-4-methoxy-2-(4-methylpiperazin-1-yl)phenyl)-acrylamide] was tested, and the GI50 was < 50 nM. In the case of `C=CC(=O)Nc1cc(Nc2cc(N3OCC[C@@H]3c3cccc(C(=O)NC(C)C)c3)ncn2)c(OC)cc1N1CCN(C)CC1` [Example 246, (R)-3-(2-(6-((5-acrylamido-2-methoxy-4-(4-methylpiperazin-1-yl)phenyl)-amino)pyrimidin-4-yl)isoxazolidin-3-yl)-N-isopropyl-benzamide], the GI50 is reported as < 50 nM. In the case of `C=CC(=O)Nc1cc(Nc2cc(N3OCC[C@@H]3c3cccc(C(=O)NC(C)C)c3)ncn2)c(OC)cc1N(C)CCN(C)C` [Example 247, (R)-3-(2-(6-((5-acrylamido-4-((2-(dimethylamino)-ethyl)(methyl)-amino)-2-methoxy-phenyl)amino)pyr-imidin-4-yl)isox-azolidin-3-yl)-N-isopropylbenzamide], the GI50 is reported as < 50 nM. For `C=CC(=O)Nc1cc(Nc2cc(N3OCCC3c3cccc(-c4cc(F)cc(F)c4)c3)ncn2)c(OC)cc1N1CCC(N2CCN(C3CC3)CC2)CC1` (stereo not shown) [Example 249, N-(2-(4-(4-cyclo-propylpiperazin-1-yl)piperidin-1-yl)-5-((6-(3-(3′,5′-difluoro-[1,1′-biphenyl]-3-yl)-isoxazolidin-2-yl)-pyrimidin-4-yl)-amino)-4-methoxy-phenyl)acrylamide], the GI50 was 50 to 500 nM. In the case of `C=CC(=O)Nc1cc(Nc2cc(N3OCCC3c3cccc(-c4cccc(C#N)c4)c3)ncn2)c(OC)cc1N1CCC(N2CCN(C3CC3)CC2)CC1` (stereo not shown) [Example 250, N-(5-((6-(3-(3′-cyano-[1,1′-biphen-yl]-3-yl)isoxazol-idin-2-yl)pyrim-idin-4-yl)amino)-2-(4-(4-cycloprop-ylpiperazin-1-yl)-piperidin-1-yl)-4-methoxyphenyl)-acrylamide], the GI50 is reported as < 50 nM. `C=CC(=O)Nc1cc(Nc2cc(N3OCC[C@H]3c3cccc(-c4cccc(F)c4)c3F)ncn2)c(OC)cc1N1CCC(N2CCN(C3CC3)CC2)CC1` [Example 251, (S)-N-(2-(4-(4-cyclopropylpiper-azin-1-yl)piper-idin-1-yl)-5-((6-(3-(2,3′-difluoro-[1,1′-biphenyl]-3-yl)-isoxazolidin-2-yl)-pyrimidin-4-yl)-amino)-4-methoxy-phenyl)acrylamide] gave a GI50 of 500 to 5000 nM. With `C=CC(=O)Nc1cc(Nc2cc(N3OCC[C@@H]3c3cccc(-c4cccc(F)c4)c3F)ncn2)c(OC)cc1N1CCC(N2CCN(C3CC3)CC2)CC1` [Example 252, (R)-N-(2-(4-(4-cyclopropylpiper-azin-1-yl)piper-idin-1-yl)-5-((6-(3-(2,3′-difluoro-[1,1′-biphenyl]-3-yl)isoxazolidin-2-yl)pyrimidin-4-yl)-amino)-4-methoxy-phenyl)acrylamide] the GI50 was < 50 nM. In the case of `C=CC(=O)Nc1cc(Nc2cc(N3OCC[C@@H]3c3cccc(C(=O)NC4CCCCC4)c3)ncn2)c(OC)cc1N1CCC(N2CCN(C3CC3)CC2)CC1` [Example 254, (R)-3-(2-(6-((5-acrylamido-4-(4-(4-cyclopropyl-piperazin-1-yl)-piperidin-1-yl)-2-methoxyphenyl)-amino)pyrimidin-4-yl)isoxazolidin-3-yl)-N-cyclohex-ylbenzamide], the GI50 is reported as < 50 nM. `COc1cc(F)c(NC(=O)/C=C/CN(C)C)cc1Nc1cc(N2OCC[C@@H]2c2ccc(F)c(OCc3cccc(F)c3)c2)ncn1` [Example 255, (R,E)-4-(dimethyl-amino)-N-(2-fluoro-5-((6-(3-(4-fluoro-3-((3-fluorobenzyl)oxy)-phenyl)isoxazol-idin-2-yl)pyrim-idin-4-yl)amino)-4-methoxyphen-yl)but-2-enamide] was tested, and the GI50 was 50 to 500 nM. `C=CC(=O)Nc1cc(Nc2cc(N3OCC[C@@H]3c3ccc(C)c(OCc4cccc(F)c4)c3)ncn2)c(OC)cc1N1CCN(C)CC1` [Example 256, (R)-N-(5-((6-(3-(3-((3-fluorobenz-yl)oxy)-4-methyl-phenyl)isoxazol-idin-2-yl)pyrim-idin-4-yl)amino)-4-methoxy-2-(4-methylpiperazin-1-yl)phenyl)-acrylamide] was tested, and the GI50 was 50 to 500 nM. `C=CC(=O)Nc1cc(Nc2cc(N3OCC[C@@H]3c3ccc(C)c(OCc4cccc(F)c4)c3)ncn2)c(OC)cc1N(C)CCN(C)C` [Example 257, (R)-N-(2-((2-(dimethylamino)-ethyl)(methyl)-amino)-5-((6-(3-(3-((3-fluorobenz-yl)oxy)-4-methyl-phenyl)isoxazol-idin-2-yl)pyrim-idin-4-yl)amino)-4-methoxyphen-yl)acrylamide] was tested, and the GI50 was < 50 nM. `C=CC(=O)Nc1cc(Nc2cc(N3OCC[C@@H]3c3ccc(C)c(OCc4cccc(F)c4)c3)ncn2)c(OC)cc1F` [Example 258, (R)-N-(2-fluoro-5-((6-(3-(3-((3-fluorobenzyl)oxy)-4-methylphenyl)-isoxazolidin-2-yl)-pyrimidin-4-yl)-amino)-4-methoxy-phenyl)acrylamide] was tested, and the GI50 was 500 to 5000 nM. With `C=CC(=O)Nc1cc(Nc2cc(N3OCC[C@@H]3c3ccc(F)c(Oc4cccc(C(F)(F)F)c4)c3)ncn2)c(OC)cc1N1CCN(C)CC1` [Example 259, (R)-N-(5-((6-(3-(4-fluoro-3-(3-(trifluoromethyl)-phenoxy)phenyl)-isoxazolidin-2-yl)-pyrimidin-4-yl)-amino)-4-meth-oxy-2-(4-methyl-piperazin-1-yl)-phenyl)acrylamide] the GI50 was 50 to 500 nM. For `C=CC(=O)Nc1cc(Nc2cc(N3OCC[C@@H]3c3ccc(F)c(Oc4cccc(C(F)(F)F)c4)c3)ncn2)c(OC)cc1N(C)CCN(C)C` [Example 260, (R)-N-(2-((2-(dimethylamino)-ethyl)(methyl)-amino)-5-((6-(3-(4-fluoro-3-(3-(trifluoromethyl)-phenoxy)phenyl)-isoxazolidin-2-yl)-pyrimidin-4-yl)-amino)-4-methoxy-phenyl)acrylamide], the GI50 was 50 to 500 nM. In the case of `C=CC(=O)Nc1cc(Nc2cc(N3OCCC3c3cccc(-c4cccc(F)c4)c3)ncn2)c(OC)cc1N(C)CCN(C)C` (stereo not shown) [Example 261, N-(2-((2-(dimeth-ylamino)ethyl)-(methyl)amino)-5-((6-(3-(3′-fluoro-[1,1′-biphenyl]-3-yl)isoxazolidin-2-yl)pyrimidin-4-yl)-amino)-4-methoxy-phenyl)acrylamide], the GI50 is reported as < 50 nM. `C=CC(=O)Nc1cc(Nc2cc(N3OCC[C@@H]3c3cccc(-c4cnc5ccnn5c4)c3)ncn2)c(OC)cc1N1CCN(C)CC1` [Example 262, (R)-N-(4-methoxy-2-(4-methylpiper-azin-1-yl)-5-((6-(3-(3-(pyrazolo[1,5-a]pyrimidin-6-yl)-phenyl)isoxazol-idin-2-yl)pyrim-idin-4-yl)amino)-phenyl)acrylamide] was tested, and the GI50 was < 50 nM. `C=CC(=O)Nc1cc(Nc2cc(N3OCC[C@@H]3c3cccc(-c4cnc5ccnn5c4)c3)ncn2)c(OC)cc1N(C)CCN(C)C` [Example 263, (R)-N-(2-((2-(dimethylamino)-ethyl)(methyl)-amino)-4-methoxy-5-((6-(3-(3-(pyr-azolo[1,5-a]pyrim-idin-6-yl)phenyl)-isoxazolidin-2-yl)-pyrimidin-4-yl)-amino)phenyl)-acrylamide] was tested, and the GI50 was < 50 nM. `C=CC(=O)Nc1cc(Nc2cc(N3OCC[C@@H]3c3cccc(-c4cnc5ccnn5c4)c3)ncn2)c(OC)cc1N1CCOCC1` [Example 264, (R)-N-(4-methoxy-2-morpholino-5-((6-(3-(3-(pyraz-olo[1,5-a]pyrim-idin-6-yl)phenyl)-isoxazolidin-2-yl)-pyrimidin-4-yl)-amino)phenyl)-acrylamide] was tested, and the GI50 was < 50 nM. With `C=CC(=O)Nc1cc(Nc2cc(N3OCC[C@@H]3c3cccc(-c4ccc5ncnn5c4)c3)ncn2)c(OC)cc1N1CCN(C)CC1` [Example 266, (R)-N-(5-((6-(3-(3-([1,2,4]triazolo-[1,5-a]pyridin-6-yl)phenyl)isoxazol-idin-2-yl)pyrim-idin-4-yl)amino)-4-methoxy-2-(4-methylpiperazin-1-yl)phenyl)acryl-amide] the GI50 was < 50 nM. For `C=CC(=O)Nc1cc(Nc2cc(N3OCCC3c3cccc(-c4cc(F)cc(F)c4)c3)ncn2)c(OC)cc1N1CCN(C)CC1` (stereo not shown) [Example 267, N-(5-((6-(3-(3′,5′-difluoro-[1,1′-biphenyl]-3-yl)-isoxazolidin-2-yl)-pyrimidin-4-yl)-amino)-4-methoxy-2-(4-methylpiper-azin-1-yl)phenyl)-acrylamide], the GI50 was < 50 nM. With `C=CC(=O)Nc1cc(Nc2cc(N3OCC[C@@H]3c3cccc(-c4ccn5ncnc5c4)c3)ncn2)c(OC)cc1N1CCN(C)CC1` [Example 268, (R)-N-(5-((6-(3-(3-([1,2,4]triazolo-[1,5-a]pyridin-7-yl)phenyl)isoxazol-idin-2-yl)pyrim-idin-4-yl)amino)-4-methoxy-2-(4-methylpiperazin-1-yl)phenyl)-acrylamide] the GI50 was < 50 nM. `C=CC(=O)Nc1cc(Nc2cc(N3OCC[C@@H]3c3cccc(-c4cc(F)cc(F)c4)c3)ncn2)c(OC)cc1N1CCC(N2CCN(C3CC3)CC2)CC1` [Example 269, (R)-N-(2-(4-(4-cyclopropylpiper-azin-1-yl)piper-idin-1-yl)-5-((6-(3-(3′,5′-difluoro-[1,1′-biphenyl]-3-yl)isoxazolidin-2-yl)pyrimidin-4-yl)-amino)-4-methoxy-phenyl)acrylamide] was tested, and the GI50 was < 50 nM.
